The structures appear in SMILES notation. Active and inactive are the calls of the source. No cut-off for these calls is given here.

These results are taken from ChEMBL document CHEMBL3124812, “Benzamidobenzoic acids as potent PqsD inhibitors for the treatment of Pseudomonas aeruginosa infections” (Eur J Med Chem, 2014).

Test [1] deals with Pseudomonas aeruginosa. As to the kind of experiment: Inhibition of Pseudomonas aeruginosa His-6-tagged PqsD expressed in Escherichia coli BL21 (lambdaDE3) using anthraniloyl-CoA/beta-ketodecanoic acid at 25 uM as substrate by LC-MS/MS analysis.
Test [2] concerns Escherichia coli. Description: Inhibition of Escherichia coli RNAP assessed as incorporation of [5,6-3H]UTP at 50 uM preincubated for 10 mins followed by DNA template and ATP, CTP, GTP, UTP, [5,6-3H]UTP addition measured after 10 mins by scintillation counting analysis.
Test [3] deals with Pseudomonas aeruginosa. As to the kind of experiment: Inhibition of Pseudomonas aeruginosa His-6-tagged PqsD expressed in Escherichia coli BL21 (lambdaDE3) using anthraniloyl-CoA/beta-ketodecanoic acid at 50 uM as substrate by LC-MS/MS analysis.
Test [4] can be described thus: Selectivity index, ratio of IC50 for Escherichia coli RNAP to IC50 for Pseudomonas aeruginosa PqsD.
Test [5] can be described thus: Inhibition of Escherichia coli RNAP assessed as incorporation of [5,6-3H]UTP preincubated for 10 mins followed by DNA template and ATP, CTP, GTP, UTP, [5,6-3H]UTP addition measured after 10 mins by scintillation counting analysis. The note with it: read-out: IC50.
Test [6] is described as follows: Inhibition of Pseudomonas aeruginosa His-6-tagged PqsD expressed in Escherichia coli BL21 (lambdaDE3) using anthraniloyl-CoA/beta-ketodecanoic acid as substrate by LC-MS/MS analysis. The note with it: read-out: IC50.
Test [7] concerns Escherichia coli. Description: Inhibition of Escherichia coli RNAP assessed as incorporation of [5,6-3H]UTP at 100 uM preincubated for 10 mins followed by DNA template and ATP, CTP, GTP, UTP, [5,6-3H]UTP addition measured after 10 mins by scintillation counting analysis.
For test [8], the system named is Pseudomonas aeruginosa. Description: Inhibition of Pseudomonas aeruginosa His-6-tagged PqsD expressed in Escherichia coli BL21 (lambdaDE3) using anthraniloyl-CoA/beta-ketodecanoic acid at 10 uM as substrate by LC-MS/MS analysis.

On to `COc1ccc(C(=O)O)c(NC(=O)c2ccc(-c3ccccc3)cc2)c1`, for which the inhibition (in general, the drop in the measured response relative to a control, in per cent) in the test on Pseudomonas aeruginosa [1] was found to be 43%. In the case of `O=C(Nc1sc(-c2ccccc2)cc1C(=O)O)c1ccc(-c2ccccc2)cc1`, the inhibition was 33% with Escherichia coli [2] and 28% with Pseudomonas aeruginosa [3]. `O=C(Nc1cccc(O)c1C(=O)O)c1ccc(-c2ccccc2)cc1`: the Ratio IC50 in test [4] was 50. Also, the IC50 (in general, the concentration that inhibits the measured activity by half) was found to be 74 µM in test [5] and 1.3 µM in test [6]. `CCN(CC)S(=O)(=O)c1cccc(C(=O)Nc2ccc(-c3ccc(C(=O)O)cc3)cc2C(=O)O)c1`: in the test with Escherichia coli [2], the inhibition came out at 23%.

Turning to `CCN(CC)S(=O)(=O)c1cccc(C(=O)Nc2ccc(Br)cc2C(=O)O)c1`, the inhibition entry with Escherichia coli [2] was “inactive”. As for `O=C(O)c1cccc(NC(=O)c2ccc(-c3ccccc3)cc2)c1`, the inhibition with Pseudomonas aeruginosa [1] worked out at 25%; in the test on Escherichia coli [7], 31%. As for `O=C(O)c1ccc(NC(=O)c2ccc(-c3ccccc3)cc2)cc1`, in the test with Pseudomonas aeruginosa [8], the inhibition result was “inactive”. In addition, the inhibition in the test on Escherichia coli [7] came out at 15%. As to `CCN(CC)S(=O)(=O)c1cc(C(=O)Nc2ccc(Br)cc2C(=O)O)ccc1Br`, in the test with Escherichia coli [2], the inhibition result is “inactive”.
